Test results published in US11679108B2, “Aromatic heterocyclic compound, and pharmaceutical composition and use thereof” (GUANGZHOU HENOVCOM BIOSCIENCE CO., LTD., priority 2018, dated 2023).

These compounds were tested against ATX (Homo sapiens, UniProt Q13822) (assay: Analysis in vitro: LPC was used as substrate for screening enzyme activity (Amplex Red fluorescence)). Conditions: inhibitory activity against ATX, with LPC as substrate.
Format: biochemical
Source text: Analysis In Vitro: LPC was Used as Substrate for Screening Enzyme Activity
Principle: Lysophosphatidylcholine (LPC) as substrate is hydrolyzed by using the activity of lysoPLD enzyme, to produce lysophosphatidic acid (LPA) and choline, which is oxidized to produce H2O2 under the action of choline oxidase. In presence of horse radish peroxidase (HPR), Amplex Red reagent is reacted with H2O2 in a quantitative chemistry ratio of 1 to 1, to produce strong fluorescence products, which are detected by a fluorescent quantitative test.
Experimental procedures: the compounds to be tested were dissolved in DMSO, to prepare 10 mM of stock solution, which was diluted in a gradient concentration of 3 times with DMSO from 10 mM, to generate 10 concentration gradients. The reaction buffer solution was used for preparing a mixed solution 1 of 2 ng/μl ATX, 2 U/ml HRP and 0.2 U/ml choline oxidase in a final concentration. 20 μl of the above mixed solution 1 was added to each hole of an experiment board, […]. The compounds diluted with DMSO were transferred into an experiment board with Echo550. The reaction buffer solution was used for preparing a mixed solution 2 of […] LPC and 400 μM Amplex Red in a final concentration. 20 μl of the above mixed solution 2 was added to each hole of the experiment board. After addition, the experiment board was shook for 30 seconds on a shaker, and incubated for 30 minutes. Envision was used to read the fluorescence signals with an exciting light at 530 nm and emitted light at 590 nm. Inhibition ratio of the compounds to enzyme reaction was calculated according to the ratio of fluorescence, and IC50 of the compounds was analyzed and calculated by software, seeing Table 1.
An IC50 of at least 1000 nM was found for CCc1nc2sc(N3CC[C@@H](N(CC(=O)N4CC(O)C4)CC4CC4)C3)nn2c1N(C)c1nc(-c2ccc(F)cc2)c(C#N)s1 [Example 90] in this work. An IC50 of 100 to 500 nM was found for CCc1nc2sc(N3CCC(N(C)C(=O)N(C)C)C3)nn2c1N(C)c1nc(-c2ccc(F)cc2)c(C#N)s1 (centres unmarked) [Example 31, 1-{1-[5-((5-cyano-4-(4-fluorophenyl)thiazol-2-yl)(methyl)amino)-6-ethylimidazo[2,1-b][1,3,4]thiadiazol-2-yl]pyrrolidin-3-yl}-1,3,3-trimethylurea] in this work. An IC50 of 0.01 to 100 nM was found for CCc1nc2sc(N3CCC(N(C)CC(=O)N4CC(F)C4)C3)nn2c1N(C)c1nc(-c2ccc(F)cc2)c(C#N)s1 (centres unmarked) [Example 33, 2-{[6-ethyl-2-(3-((2-(3-fluoroazetidin-1-yl)-2-oxoethyl)(methyl)amino)pyrrolidin-1-yl)imidazo[2,1-b][1,3,4]thiadiazol-5-yl](methyl)amino}-4-(4-fluorophenyl)thiazole-5-carbonitrile] in this work. An IC50 of 500 to 1000 nM was found for CCc1nc2sc(N3CCN(CC(=O)N4CC(O)C4)[C@@H](CO)C3)nn2c1N(C)c1nc(-c2ccc(F)cc2)c(C#N)s1 [Example 85, (R)-2-{[6-ethyl-2-(4-(2-(3-hydroxyazetidin-1-yl)-2-oxoethyl)-3-(hydroxymethyl)piperazin-1-yl)imidazo[2,1-b][1,3,4]thiadiazol-5-yl](methyl)amino}-4-(4-fluorophenyl)thiazole-5-carbonitrile] in this work. An IC50 of 0.01 to 100 nM was found for CCc1nc2sc(N3CCC(N(C)C(=O)NC)C3)nn2c1N(C)c1nc(-c2ccc(F)cc2)c(C#N)s1 (centres unmarked) [Example 29, 1-{1-[5-((5-cyano-4-(4-fluorophenyl)thiazol-2-yl)(methyl)amino)-6-ethylimidazo[2,1-b][1,3,4]thiadiazol-2-yl}pyrrolidin-3-yl}-1,3-dimethylurea] in this work. An IC50 of 100 to 500 nM was found for CCc1nc2sc(N3CCN(CC(=O)N4CC(O)C4)[C@@H](C(=O)OC)C3)nn2c1N(C)c1nc(-c2ccc(F)cc2)c(C#N)s1 [Example 84, methyl (R)-4-{5-[(5-cyano-4-(4-fluorophenyl)thiazol-2-yl)(methyl)amino]-6-ethylimidazo[2,1-b][1,3,4]thiadiazol-2-yl}-1-(2-(3-hydroxyazetidin-1-yl)-2-oxoethyl)piperazine-2-carboxylate] in this work. An IC50 of 100 to 500 nM was found for CCc1nc2sc(N3CCC(N(C)S(=O)(=O)C4CC4)C3)nn2c1N(C)c1nc(-c2ccc(F)cc2)c(C#N)s1 (centres unmarked) [Example 28, N-{1-[5-((5-cyano-4-(4-fluorophenyl)thiazol-2-yl)(methyl)amino)-6-ethylimidazo[2,1-b][1,3,4]thiadiazol-2-yl}pyrrolidin-3-yl}-N-methylcyclopropanesulfonamide] in this work. An IC50 of 100 to 500 nM was found for CCc1nc2sc(N3CC[C@@H](N(C)CC(=O)N4CC(C(=O)O)C4)C3)nn2c1N(C)c1nc(-c2ccc(F)cc2)c(C#N)s1 [Example 44, (R)-1-{2-[(1-(5-((5-cyano-4-(4-fluorophenyl)thiazol-2-yl)(methyl)amino)-6-ethylimidazo[2,1-b][1,3,4]thiadiazol-2-yl}pyrrolidin-3-yl)(methyl)amino]acetyl}azetidine-3-carboxylic acid] in this work. An IC50 of 100 to 500 nM was found for CCc1nc2sc(N3CC[C@@H](N(CC)CC(=O)N4CC(O)C4)C3)nn2c1N(C)c1nc(-c2ccc(F)cc2)c(C#N)s1 [Example 89, (R)-2-{[6-ethyl-2-(3-(ethyl(2-(3-hydroxyazetidin-1-yl)-2-oxoethyl)amino)pyrrolidin-1-yl)imidazo[2,1-b][1,3,4]thiadiazol-5-yl](methyl)amino}-4-(4-fluorophenyl)thiazole-5-carbonitrile] in this work. An IC50 of 100 to 500 nM was found for CCc1nc2sc(N3CC4(CN(CC(=O)N5CC(O)C5)C4)C3)nn2c1N(C)c1nc(-c2ccc(F)cc2)c(C#N)s1 [Example 6] in this work. An IC50 of 0.01 to 100 nM was found for CCc1nc2sc(N3CCC(N(C)CC(=O)N4CCOCC4)C3)nn2c1N(C)c1nc(-c2ccc(F)cc2)c(C#N)s1 (centres unmarked) [Example 34, 2-{[6-ethyl-2-(3-(methyl(2-mophlin-2-oxoethyl)amino)pyrrolidin-1-yl)imidazo[2,1-b][1,3,4]thiadiazol-5-yl](methyl)amino}-4-(4-fluorophenyl)thiazole-5-carbonitrile] in this work. An IC50 of 0.01 to 100 nM was found for CCc1nc2sc(N3CC[C@H](N(C)CC(=O)N4CC(C(=O)OC)C4)C3)nn2c1N(C)c1nc(-c2ccc(F)cc2)c(C#N)s1 [Example 43, methyl (S)-1-{2-[(1-(5-((5-cyano-4-(4-fluorophenyl)thiazol-2-yl)(methyl)amino)-6-ethylimidazo[2,1-b][1,3,4]thiadiazol-2-yl)pyrrolidin-3-yl)(methyl)amino]acetyl}azetidine-3-carboxylate] in this work. An IC50 of 500 to 1000 nM was found for CN(c1nc(-c2ccc(F)cc2)c(C#N)s1)c1c(CCO)nc2sc(N3CC[C@@H](N(C)CC(=O)N4CC(O)C4)C3)nn12 [Example 87, (R)-4-(4-fluorophenyl)-2-{[2-(3-((2-(3-hydroxyazetidin-1-yl)-2-oxoethyl)(methyl)amino)pyrrolidin-1-yl)-6-(2-hydroxyethyl)imidazo[2,1-b][1,3,4]thiadiazol-5-yl](methyl)amino}thiazole-5-carbonitrile] in this work. An IC50 of 500 to 1000 nM was found for CCc1nc2sc(N3CCN(CC(=O)N4CC(O)C4)[C@H](C(=O)NC)C3)nn2c1N(C)c1nc(-c2ccc(F)cc2)c(C#N)s1 [Example 83, (S)-4-{5-[(5-cyano-4-(4-fluorophenyl)thiazol-2-yl)(methyl)amino]-6-ethylimidazo[2,1-b][1,3,4]thiadiazol-2-yl}-1-(2-(3-hydroxyazetidin-1-yl)-2-oxoethyl)-N-methylpiperazine-2-carboxamide] in this work. An IC50 of at least 1000 nM was found for CCc1nc2sc(N3CCCC(N(C)C(=O)NC(C)(C)C)C3)nn2c1N(C)c1nc(-c2ccc(F)cc2)c(C#N)s1 (centres unmarked) [Example 26, 3-tert-butyl-1-{1-[5-((5-cyano-4-(4-fluorophenyl)thiazol-2-yl)(methyl)amino)-6-ethylimidazo[2,1-b][1,3,4]thiadiazol-2-yl]piperidin-3-yl}-1-methylurea] in this work. An IC50 of 100 to 500 nM was found for CCc1nc2sc(N3CC[C@@H](N(C)CC(=O)N4CC(C(=O)OC)C4)C3)nn2c1N(C)c1nc(-c2ccc(F)cc2)c(C#N)s1 [Example 42, methyl (R)-1-{2-[(1-(5-((5-cyano-4-(4-fluorophenyl)thiazol-2-yl)(methyl)amino)-6-ethylimidazo[2,1-b][1,3,4]thiadiazol-2-yl)pyrrolidin-3-yl)(methyl)amino]acetyl}azetidine-3-carboxylate] in this work. An IC50 of 100 to 500 nM was found for CCc1nc2sc(N3CCC(N(C)C(=O)NC(C)(C)C)C3)nn2c1N(C)c1nc(-c2ccc(F)cc2)c(C#N)s1 (centres unmarked) [Example 25, 3-tertbutyl-1-{1-[5-((5-cyano-4-(4-fluorophenyl)thiazol-2-yl)(methyl)amino)-6-ethylimidazo[2,1-b][1,3,4]thiadiazol-2-yl]pyrrolidin-3-yl}-1-methylurea] in this work. An IC50 of 0.01 to 100 nM was found for CCc1nc2sc(N3CCC(N(C)C(=O)N4CC(O)C4)C3)nn2c1N(C)c1nc(-c2ccc(F)cc2)c(C#N)s1 (centres unmarked) [Example 30, N-{1-[5-((5-cyano-4-(4-fluorophenyl)thiazol-2-yl)(methyl)amino)-6-ethylimidazo[2,1-b][1,3,4]thiadiazol-2-yl}pyrrolidin-3-yl}-3-hydroxy-N-methylazetidine-1-carboxamide] in this work. An IC50 of 100 to 500 nM was found for COCCc1nc2sc(N3CC[C@@H](N(C)CC(=O)N4CC(O)C4)C3)nn2c1N(C)c1nc(-c2ccc(F)cc2)c(C#N)s1 [Example 88, (R)-4-(4-fluorophenyl)-2-{[2-(3-((2-(3-hydroxyazetidin-1-yl)-2-oxoethyl)(methyl)amino)pyrrolidin-1-yl)-6-(2-methoxyethyl)imidazo[2,1-b][1,3,4]thiadiazol-5-yl](methyl)amino}thiazole-5-carbonitrile] in this work. An IC50 of 100 to 500 nM was found for CCc1nc2sc(N3CCN(CC(=O)N4CC(O)C4)[C@H](CO)C3)nn2c1N(C)c1nc(-c2ccc(F)cc2)c(C#N)s1 [Example 82, (S)-2-{[6-ethyl-2-(4-(2-(3-hydroxyazetidin-1-yl)-2-oxoethyl)-3-(hydroxymethyl)piperazin-1-yl)imidazo[2,1-b][1,3,4]thiadiazol-5-yl](methyl)amino}-4-(4-fluorophenyl)thiazole-5-carbonitrile] in this work. An IC50 of 100 to 500 nM was found for CCc1nc2sc(C3CCN(C(N)=O)CC3)nn2c1N(C)c1nc(-c2ccc(F)cc2)c(C#N)s1 [Example 18, 4-{5-[(5-cyano-4-(4-fluorophenyl)thiazol-2-yl](methyl)amino]-6-ethylimidazo[2,1-b][1,3,4]thiadiazol-2-yl}piperidine-1-carboxamide] in this work. An IC50 of 100 to 500 nM was found for CCc1nc2sc(N3CC[C@@H](N(C)CC(=O)N4CC(C#N)C4)C3)nn2c1N(C)c1nc(-c2ccc(F)cc2)c(C#N)s1 [Example 46, (R)-2-{[2-(3-((2-(3-cyanoazetidin-1-yl)-2-oxoethyl)(methyl)amino)pyrrolidin-1-yl)-6-ethylimidazo[2,1-b][1,3,4]thiadiazol-5-yl](methyl)amino}-4-(4-fluorophenyl)thiazole-5-carbonitrile] in this work. An IC50 of at least 1000 nM was found for CCc1nc2sc(N3CCN(S(C)(=O)=O)CC3)nn2c1N(C)c1nc(-c2ccc(F)cc2)c(C#N)s1 [Example 1] in this work.
